Assays:
Assay type in all cases: cell-based
tuberin = assay: Phosphorylation of tuberin
Excerpt: SH5, 6, 23, 24, and 25 are very active in decreasing Akt phosphorylation in a panel of cancer cell lines. These compounds decrease Akt phosphorylation as well as Akt kinase activity, with IC50s in the low micromolar range. These compounds appear to be specific for Akt, as the phosphorylation of the upstream kinase, PDK-1, is unaffected by any of the SH compounds, as is […]. Cell-line specific, selective inhibition of phosphorylation of substrates downstream of Akt, such as c-Raf, 4EBP-1, GSK-3, and/or FKHR/AFX was observed. […] Phosphorylation of tuberin, 4EBP-1 and P70S6K (substrates that control protein translation) was inhibited by SH23, 24, and 25; and SH5-6 inhibited phosphorylation of tuberin and 4EBP-1. Phosphorylation of forkhead family members AFX and FKHR that control transcription was inhibited by SH23 or 25. Phosphorylation of GSK-3 and c-Raf was attenuated by SH23-25.

Akt = assay: Immunoblotting with antibodies against Akt phosphorylated at S473 and native Akt after administration of compounds to cancer cell lines; conditions: for native Akt levels (immunoblot) / Akt phosphorylation at S473 (immunoblot): FIG. 1D; for decreasing Akt phosphorylation: panel of cancer cell lines (summary)
Method: The SH compounds were tested against Akt and other kinases that are either upstream of Akt (PDK-1), downstream of Akt (c-Raf, 4EBP-1, p70S6K, FKHR, GSK-3, and/or AFX), or downstream of Ras (ERK, p38). Immunoblotting was carried out with phospho-specific antibodies to assess activation state of the kinases, and with native antibodies to assess changes in protein levels.

H1355 and A549 cells = assay: Apoptosis in cells with low endogenous Akt levels
Method: (§1) Cell lines containing high or low endogenous levels of Akt activity were treated with SH compounds and the cell apoptosis was measured.

4EBP-1 = assay: Immunoblotting with phospho-specific antibodies: 4EBP-1 phosphorylation; conditions: summary, cell line not specified
Method: (§2) The SH compounds were tested against Akt and other kinases that are either upstream of Akt (PDK-1), downstream of Akt (c-Raf, 4EBP-1, p70S6K, FKHR, GSK-3, and/or AFX), or downstream of Ras (ERK, p38). Immunoblotting was carried out with phospho-specific antibodies to assess activation state of the kinases, and with native antibodies to assess changes in protein levels. Similar results were obtained with the H1703 (FIG. 3A) or H157 cells (FIG. 3B). […] Upstream of Akt, phosphorylation of PDK-1 was not affected by any SH compound. Of the downstream substrates, c-Raf phosphorylation and 4EBP-1 phosphorylation were decreased most. Decreased c-Raf phosphorylation correlated with increased ERK and p38 phosphorylation, which is consistent with the inhibitory effect of S259 phosphorylation by Akt on c-Raf activity.

MB468 cells = assay: Apoptosis in MB468 cells; conditions: MB468 cells (data not shown)
Method: as §1

p70S6K = assay: Immunoblotting with phospho-specific antibodies: p70S6K phosphorylation
Method: as §2

AFX = assay: Immunoblotting with phospho-specific antibodies: AFX phosphorylation
Method: as §2

FKHR = assay: Immunoblotting with phospho-specific antibodies: FKHR phosphorylation
Method: as §2

[1] = test system: H1703, H157, and H1155 cells; assay: Apoptosis in cell lines with high levels of Akt activity; conditions: FIG. 4
Method: as §1

p38 = assay: Immunoblotting with phospho-specific antibodies: p38 phosphorylation; conditions: H1703 (FIG. 3A) or H157 cells (FIG. 3B)
Method: as §2

[2] = H1703 (FIG. 3A) or H157 cells (FIG. 3B)

SMILES	phosphorylation of tuberin (tuberin)	native Akt levels (immunoblot) (Akt)	Akt phosphorylation (Akt; [2])	native Akt levels (Akt; [2])	Akt phosphorylation at S473 (immunoblot) (Akt; H1703 cells (wild type PTEN))	Akt phosphorylation (Akt; all three cell lines, FIG. 1F)	decreasing Akt phosphorylation (Akt)	apoptosis (H1355 and A549 cells)	phosphorylation of 4EBP-1 (4EBP-1)	apoptosis (MB468 cells)	phosphorylation of P70S6K (p70S6K)	phosphorylation of AFX (AFX)	phosphorylation of FKHR (FKHR)	increase of apoptosis [1]	Akt phosphorylation at S473 (immunoblot) (Akt; cell line not specified (H1703, H157))	p38 phosphorylation (p38)	Akt phosphorylation at S473 (immunoblot) (Akt; H157 cells (mutant PTEN))
CCCCCCCCCCCCCCCCCCOC[C@H](COP(=O)(O)O[C@H]1[C@H](O)[C@@H](O)[C@H](O)C[C@H]1OC)OC [SH5]	inhibited	without affecting	inhibited	without affecting	decreased	completely inhibited	very active	did not undergo apoptosis	inhibited	Increased apoptosis							
CCCCCCCCCCCCCCCCCCOCC(COP(=O)(O)OC1C(OCC2CCCCC2)CC(O)C(O)C1O)OC (centres unmarked) [SH24]	inhibited	without affecting			decreased	completely inhibited	very active		inhibited		inhibited						
CCCCCCCCCCCCCCCCCCOCC(COP(=O)(O)OC1C(OCC(C)C)CC(O)C(O)C1O)OC (centres unmarked) [SH23]	inhibited	without affecting			decreased	completely inhibited	very active		inhibited		inhibited	inhibited	inhibited				
CCCCCCCCCCCCCCCCCCOC[C@H](COP(=O)(O)O[C@@H]1[C@H](O)[C@H](O)C[C@H](O)[C@H]1O)OC [SH10]			inhibited	without affecting													
CCCCCCCCCCCCCCCCCCOC[C@H](COP(=O)(O)O[C@@H]1CC[C@@H](O)[C@H](O)[C@H]1O)OC [SH6]	inhibited	without affecting	inhibited	without affecting	decreased	completely inhibited	very active	did not undergo apoptosis	inhibited	Increased apoptosis							
CCCCCCCCCCCCCCCCCCOC[C@H](CO)OC [SH7, reference compound]			did not decrease					did not undergo apoptosis						no effect	lack of decreased phosphorylation		
CCCCCCCCCCCCCCCCCCOCC(COP(=O)(O)OC1C(O)CCC(O)C1O)OC (centres unmarked) [SH25]	inhibited	without affecting			decreased	completely inhibited	very active		inhibited		inhibited	inhibited	inhibited				
CCCCCCCCCCCCCCCCCCOCC(COP(=O)(O)OC1C(O)CC(O)C(O)C1O)OC (centres unmarked) [DPIEL]														no effect		decreased	
CCCCCCCCCCCCCCCCCCOC[C@H](COP(=O)(O)O[C@H]1[C@H](O)C[C@H](O)C[C@H]1O)OC [SH16]		without affecting			decreased												All but SH16
